Source: patent US6951840B2, “Lipoglycopeptide antibiotics” (priority 2001, dated 2005)
In brackets after ≈: the same amount, converted by molar mass.

Columns and labels:
[1] = tested on: Staphylococcus aureus SA027; experiment: Broth micro-dilution MIC, S. aureus SA027; type: cell-based; details: MHII broth, 23-24 hr at 37° C.
Experimental: (§1) The in vitro antibacterial activity of lipoglycopeptides 1, 2, 5, 6, 7, and 8 is determined according to the National Committee for Clinical Laboratory Standards (NCCLS) recommendations for broth micro-dilution assay using 2xsTH (Todd Hewitt broth), MHII (cation adjusted Mueller Hinton broth) or HTM medium (Haemophilus Test Medium) (Gerhardt, P., et al., (1994) Methods for General and Molecular Bacteriology. American Society for Microbiology, Washington, D.C.). Bacterial strains used for antibacterial assay include both gram-positive and gram-negative bacteria: S. pneumoniae R6, Staphylococcus aureus SA027, Haemophilus influenzae ATCC 49247, E. coli EL683 and EL744. A two-fold serial dilution of the test compound is prepared in 100% DMSO. The assay is performed in the wells of a sterile 96-well microplate, that is inoculated with bacterial cell suspension in growth medium or broth as above. The final volume is 100 μl cell suspension, containing 2.5% DMSO. The starting concentration of bacterial cells is 5×10^5 CFU/ml. The 96-well microplate is incubated for 23-24 hr at 37° C. in an ambient air incubator. Upon completion of incubation, the MIC (minimal inhibitory concentration) is determined by visual examination of the microplate with the aid of a magnifying mirror apparatus. The MIC is the lowest concentration of compound tested that results in no visible sign of bacterial growth.

E. coli EL744 = experiment: Broth micro-dilution MIC, E. coli EL744; type: cell-based; details: Escherichia coli, MHII broth, 23-24 hr at 37° C.
Experimental: as §1

E. coli SPase I [2] = target: T1, E. coli SPase I (Escherichia coli, UniProt P00803, I81L); experiment: Kinetic analysis by HPLC assay with non-fluorogenic peptide substrate; type: biochemical
T1 construct: His-tag (inferred from vector pET15b cloned at NdeI/XhoI and Ni-NTA purification); made in house; host or cells: E. coli BL21(DE3)
Experimental: A kinetic analysis is performed with E. coli SPase I and the non-fluorogenic peptide substrate by HPLC assay as described in Peng, et al. (2001) J. Bacterol. 183, 621-627. 50 μl of reaction volume contains 50 nM E. coli SPase I with different concentrations of substrate and lipoglycopepetide inhibitors. The reaction mixtures are incubated at room temperature for 30 mins., and terminated by the addition of an equal amount of 8 M urea. The final concentration of DMSO in the reaction mixtures is 2%. Substrate cleavage is analyzed by HPLC as described in Peng, et al. (2001) J. Bacterol. 183, 621-627. The initial rate, K1, and inhibition type of the inhibitor is calculated with Sigma Plot 2000, Version 6.2 with enzyme kinetics module (SPSS, Inc., Cat No. 3703564).

S. pneumoniae SPase I = target: T2, S. pneumoniae SPase I (Streptococcus pneumoniae serotype 4, UniProt O07344); experiment: Fluorimetric IC50 determination, S. pneumoniae signal peptidase; type: biochemical; details: 50 nM SPase I, 50 μM fluorogenic substrate, 37° C., 1-2 hrs
T2 construct: made in house
T2 sequence (O07344 whole entry): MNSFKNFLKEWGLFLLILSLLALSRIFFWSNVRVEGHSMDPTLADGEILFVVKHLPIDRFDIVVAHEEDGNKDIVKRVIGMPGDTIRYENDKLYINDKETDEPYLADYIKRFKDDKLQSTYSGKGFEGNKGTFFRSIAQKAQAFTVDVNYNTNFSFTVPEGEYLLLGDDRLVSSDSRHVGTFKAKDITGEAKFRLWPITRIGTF
Experimental: Procedures for cloning, expression and purification of S. pneumoniae Spase can be found in reference (Peng, et al. (2001) J. Bacterol. 183, 621-627).
(§2) “IC50” refers to the concentration of inhibitor required to achieve a half-maximal degree of inhibition of SPase I. The IC50 is determined by a fluorimetric assay as described in Peng, et al. (2001) J. Bacterol. 183, 621-627, with a fluorogenic peptide used as substrate as described therein. The reaction is performed in 50 μls of reaction mixture containing 50 nM of either E. coli or S. pneumoniae SPase I, 50 μM substrate, and a series dilution of inhibitor. Inhibitors are dissolved in dimethylsulfoxide (DMSO). Compounds in DMSO are diluted in reaction buffer. The final DMSO concentration in the reaction mixtures is 2% (v/v). Reaction mixtures are incubated at 37° C. for 1-2 hrs. The IC50 is calculated using a nonlinear regression method with GraphPad Prism™ Software (GraphPad G3-A13127-507). The inhibitory activity of lipoglycopeptides 1-8 against both E. coli and S. pneumoniae signal peptidases, are summarized in Table 7.

[3] = tested on: Haemophilus influenzae ATCC 49247; experiment: Broth micro-dilution MIC, H. influenzae ATCC 49247; type: cell-based; details: ATCC49247, read-out: MIC, H. influenzae ATCC49247
Experimental: as §1

E. coli SPase I [4] = target: T1, E. coli SPase I; experiment: Fluorimetric IC50 determination, E. coli signal peptidase; type: biochemical
Experimental: Cloning and expression of the E. coli SPase I gene is performed by polymerase chain reaction (PCR) using E. coli genomic DNA as a template and two oligonucleotides as primers: 5′-[…]-3′ (SEQ ID NO: 1) and 5′-[…]-3′ (SEQ ID NO:2). The primers are designed to contain NdeI and XhoI restriction sites at the 5′-ends, respectively, to enable cloning into the bacterial expression vector pET15b (Novagen). The primers are synthesized based upon the published sequence of E. coli SPase I (Wolfe, et al. (1983) J. Biol. Chem. 258, 12073-12080).
Expression vector pET15b-E. coli SPase is constructed by replacing the NdeI/XhoI fragment of pET15b with the PCR fragment that is purified and digested with Ndel and XhoI. The identity of the cloned gene is confirmed by DNA sequencing. For expression of E. coli SPase I, E. coli strain BL21(DE3)(Stratagene) is transformed with pET15b-E. coli SPase, and grown and induced with 0.4 mM IPTG (isopropryl-1-thio-β-D-galactopyranoside) as described in Studier, et al. (1990) Methods Enzymol. 185, 60-89.
For purification of E. coli SPase T, one liter of IPTG-induced E. coli BL21(DE3) cells harboring pET15b-E coli SPase is harvested by centrifugation and re-suspended in 50 ml of lysis buffer containing 50 mM Na2HPO4, 300 mM NaCl, pH 8.0, and sonicated 5 min. on ice. The lysate is then centrifuged at 50,000 g for 1 hr at 4° C. The resultant supernatant is discarded, the pellet is re-suspended, and sonicated for 5 min. in 20 ml of lysis buffer containing 8 M urea. After centrifugation at 50,000 g for 1 hr at 4° C., the supernatant is loaded onto a 5 ml column of pre-equilibrated Ni-nitrilotriacetic acid (NTA) that is then washed with 120 ml of refolding buffer (50 mM NaH2PO4, 300 mM NaCl, 15 mM imidazole) containing a continuous urea gradient from 6 to 1 M with a flow rate of 1 ml/min. The protein is eluted with 20 ml of elution buffer (20 mM Tris-HCl, pH 8.0, 20% glycerol, 1 M urea and 100 mM imidazole), and 1 ml fractions are collected and utilized for enzyme assay.
as §2
Target sequence in this assay (P00803 77-324 I81L): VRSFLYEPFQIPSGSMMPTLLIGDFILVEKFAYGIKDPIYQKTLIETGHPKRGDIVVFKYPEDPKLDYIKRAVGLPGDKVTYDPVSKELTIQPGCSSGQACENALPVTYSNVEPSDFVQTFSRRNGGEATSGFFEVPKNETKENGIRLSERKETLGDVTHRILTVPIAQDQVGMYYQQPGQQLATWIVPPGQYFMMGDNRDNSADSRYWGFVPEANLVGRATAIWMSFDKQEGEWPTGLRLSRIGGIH

S. pneumoniae R6 = experiment: Broth micro-dilution MIC, S. pneumoniae R6; type: cell-based; details: 23-24 hr at 37° C.; for MIC: Streptococcus pneumoniae, R6, 2XsTH broth; for MIC, S. pneumoniae R6: 2XsTH broth
Experimental: as §1

[5] = tested on: Staphylococcus aureus (ATCC 33592); experiment: Beta-lactamase release assay; type: cell-based; details: beta-lactamase-producing S. aureus ATCC 33592, 2 hr incubation with inhibitor
Experimental: In Staphylococcus aureus, signal peptidase cleaves beta-lactamase, resulting in the release of beta-lactaidase into the medium. In this example, the ability of lipoglycopeptides 1,2, and 5 to inhibit the release of beta-lactamase from Staphylococcus aureus into the medium is examined.
Staphylococcus aureus (ATCC 33592) cells are grown overnight in a series dilution in Brain Heart Infusion (BHI) (Gerhardt, P., et al., (1994) Methods for General and Molecular Bacteriology. American Society for Microbiology, Washington, D.C.) medium in a 37° C. incubator containing 5% CO2. Cultures with an OD660 less than 0.3 are centrifuged, and the cells are washed once with fresh BHI medium. The cells are then resuspended in fresh BHI medium to an initial OD660 of 0.15-0.2. At the same time, the selected inhibitor is diluted from the DMSO stock solution into BHI medium at different concentrations, and is added to the cells which are then incubated at 37° C. under 5% CO2 for 2 hr. The final DMSO concentration in the reaction mixtures is 1% (v/v). The OD660 is measured at the end of incubation. The cells are centrifuged, and the supernatant is saved for the determination of secreted beta-lactamase. The pellet is washed once with fresh BHI medium, re-suspended in the equivalent volume of fresh BHI medium, frozen, and then thawed […]. for three cycles, and used for the determination of retained beta-lactamase. For the determination of beta-lactamase activity, 100 μl reaction mixture (30-50 μls of supernatant or lysed cells) is incubated with 250 μM nitrocefin in 1×PBS buffer (phosphate buffered saline) (pH 6.8) at 37° C. for 30-60 min. Nitrocefin is the substrate for beta-lactamase. Cleavage of nitrocefin results in an increase in absorbance at 482 nm. The absorbance at 482 nm (OD482) is measured at the beginning and at the end of the reaction. The secreted and the retained beta-lactamase activities are calculated based upon the ΔOD482.

E. coli EL683 = experiment: Broth micro-dilution MIC, E. coli EL683; type: cell-based; details: Escherichia coli, MHII broth, 23-24 hr at 37° C.
Experimental: as §1

| Compound | MIC [1] [µg/mL] | MIC (E. coli EL744) [µg/mL] | Ki (E. coli SPase I [2]) [nM] | IC50 (S. pneumoniae SPase I) [nM] | MIC [3] [µg/mL] | IC50 (E. coli SPase I [4]) [nM] | MIC (S. pneumoniae R6) [µg/mL] | inhibition of secretion of beta-lactamase [5] | MIC (E. coli EL683) [µg/mL] | MIC, S. pneumoniae R6 (S. pneumoniae R6) [µg/mL] |
| --- | --- | --- | --- | --- | --- | --- | --- | --- | --- | --- |
| CC(C)CCCCCCCCCCC(=O)N(C)C(CO)C(=O)NC(C)C(=O)NCC(=O)N(C)C1C(=O)NC(C)C(=O)NC(C(=O)O)Cc2ccc(O)c(c2)-c2cc1ccc2OC1OC(C)C(O)C(O)C1O (stereo not shown) [Compound 7] | > 64 | 16 (≈ 16 µM) | 50.4 | 6100 | > 64 | 110 | > 64 | – | – | – |
| CC(C)CCCCCCCCCCCCC(=O)N(C)C(CO)C(=O)NC(C)C(=O)NCC(=O)N(C)C1C(=O)NC(C)C(=O)NC(C(=O)O)Cc2ccc(O)c(c2)-c2cc1ccc2OC1OC(C)C(O)C(O)C1O (stereo not shown) [Compound 5] | > 64 | 16 (≈ 15.6 µM) | 57.5 | 2400 | > 64 | 130 | 16 (≈ 15.6 µM) | inhibit the secretion of beta-lactamase | 4 (≈ 3.89 µM) | 8 (≈ 7.79 µM) |
| CCCCCCCCCCCCCCC(=O)N(C)C(CO)C(=O)NC(C)C(=O)NCC(=O)N(C)C1C(=O)NC(C)C(=O)NC(C(=O)O)Cc2ccc(O)c(c2)-c2cc1ccc2OC1OC(C)C(O)C(O)C1O (stereo not shown) [Compound 4] | – | – | – | 5900 | – | 130 | – | – | – | – |
| CC(C)CCCCCCCCCCCC(=O)N(C)C(CO)C(=O)NC(C)C(=O)NCC(=O)N(C)C1C(=O)NC(C)C(=O)NC(C(=O)O)Cc2ccc(O)c(c2)-c2cc1ccc2OC1OC(C)C(O)C(O)C1O (stereo not shown) [Compound 3] | – | – | – | 7000 | – | 130 | – | – | – | – |
| CC(C)CCCCCCCCCCC(=O)N(C)C(CO)C(=O)NC(C)C(=O)NCC(=O)N(C)C1C(=O)NC(C)C(=O)NC(C(=O)O)Cc2ccc(O)c(c2)-c2cc1cc(O)c2OC1OC(C)C(O)C(O)C1O (stereo not shown) [Compound 8] | > 64 | 8 (≈ 7.88 µM) | 110 | 24900 | > 64 | 110 | > 64 | – | – | – |
| CCCCCCCCCCCCCC(=O)N(C)C(CO)C(=O)NC(C)C(=O)NCC(=O)N(C)C1C(=O)NC(C)C(=O)NC(C(=O)O)Cc2ccc(O)c(c2)-c2cc1ccc2OC1OC(C)C(O)C(O)C1O (stereo not shown) [Compound 6] | > 64 | 8 (≈ 8.01 µM) | – | 6600 | > 64 | 110 | 64 (≈ 64.1 µM) | – | – | – |
| CCCCCCCCCCCCCCCC(=O)N(C)C(CO)C(=O)NC(C)C(=O)NCC(=O)N(C)C1C(=O)NC(C)C(=O)NC(C(=O)O)Cc2ccc(O)c(c2)-c2cc1cc(O)c2OC1OC(C)C(O)C(O)C1O (stereo not shown) [Compound 2] | 64 (≈ 61.3 µM) | 32 (≈ 30.7 µM) | 158 | 10300 | 64 (≈ 61.3 µM) | 190 | 8 (≈ 7.67 µM) | inhibit the secretion of beta-lactamase | 8 (≈ 7.67 µM) | 16 (≈ 15.3 µM) |
| CC(C)CCCCCCCCCCCCC(=O)N(C)C(CO)C(=O)NC(C)C(=O)NCC(=O)N(C)C1C(=O)NC(C)C(=O)NC(C(=O)O)Cc2ccc(O)c(c2)-c2cc1cc(O)c2OC1OC(C)C(O)C(O)C1O (stereo not shown) [Compound 1] | 32 (≈ 30.7 µM) | 32 (≈ 30.7 µM) | – | 7100 | 64 (≈ 61.3 µM) | 170 | 16 (≈ 15.3 µM) | inhibit the secretion of beta-lactamase | 8 (≈ 7.67 µM) | – |
